# ChEMBL document CHEMBL5042512 (Eur J Med Chem, 2022)
# System: MGC-803
# Assay: Antiproliferative activity against human MGC-803 cells assessed as cell growth inhibition measured after 48 hrs by CCK8 assay
# Format: functional, cell-based
# Conditions: MGC-803, 48 h
row,Structure (SMILES),IC50 [µM]
1,COc1ccc(CN(C(=O)CSC(=S)N2CCN(C)CC2)c2cc(OC)c(OC)c(OC)c2)cc1,1.28
2,COc1ccc(CN(C(=O)CSC(=S)N2CCc3ccccc32)c2cc(OC)c(OC)c(OC)c2)cc1,8.41
3,COc1cc2c(c(OC)c1OC)-c1ccc(OC)c(=O)cc1[C@@H](NC(C)=O)CC2 [COLCHICINE],0.09
4,COc1ccc(CN(C(=O)CSC(=S)N2CCN(C(=O)OC(C)(C)C)CC2)c2cc(OC)c(OC)c(OC)c2)cc1N=[N+]=[N-],0.81
5,COc1ccc(CN(C(=O)CSC(=S)N2CCN(C(C)=O)CC2)c2cc(OC)c(OC)c(OC)c2)cc1O,0.31
6,COc1cc(N(Cc2ccc(Br)cc2)C(=O)CSC(=S)N2CCN(C(=O)OC(C)(C)C)CC2)cc(OC)c1OC,12.4
7,COc1ccc(CN(C(=O)CN2CCN(C(C)=O)CC2)c2cc(OC)c(OC)c(OC)c2)cc1,12.8
8,COc1ccc(CN(C(=O)CSC(=S)N2CCOCC2)c2cc(OC)c(OC)c(OC)c2)cc1,2.37
9,COc1ccc(CN(C(=O)CSC(=S)N2CCN(C(C)=O)CC2)c2cc(OC)c(OC)c(OC)c2)cc1,0.48
10,COc1ccc(CN(C(=O)CSC(=S)N2CCN(Cc3ccc(C(C)(C)C)cc3)CC2)c2cc(OC)c(OC)c(OC)c2)cc1,5.39
11,COc1ccc(CN(C(=O)CSC(=S)N2CCc3cc(Br)ccc32)c2cc(OC)c(OC)c(OC)c2)cc1,> 20
12,CCN1CCN(C(=S)SCC(=O)N(Cc2ccc(OC)cc2)c2cc(OC)c(OC)c(OC)c2)CC1,9.89
13,COc1ccc(CN(C(=O)CSC(=S)N2CCN(C(=O)OC(C)(C)C)CC2)c2ccc(Cl)cc2)cc1,> 20
14,COc1ccc(CN(C(=O)CSC(=S)N2CCCc3cc(OC)ccc32)c2cc(OC)c(OC)c(OC)c2)cc1,8.21
15,COc1ccc(CN(C(=O)CSC(=S)N2CCCc3cc(C)ccc32)c2cc(OC)c(OC)c(OC)c2)cc1,6.49
16,COc1ccc(CN(C(=O)CSC(=S)N2CCN(C(=O)OC(C)(C)C)CC2)c2cc(OC)c(OC)c(OC)c2)cc1[N+](=O)[O-],0.88
17,COc1ccc(CN(C(=O)CSC(=S)N2CCCC2)c2cc(OC)c(OC)c(OC)c2)cc1,> 20
18,COc1ccc(CN(C(=O)CSC(=S)N2CCN(C(=O)OC(C)(C)C)CC2)c2ccc(OC)cc2)cc1,> 20

# System: KYSE-450
# Assay: Antiproliferative activity against human KYSE-450 cells assessed as cell growth inhibition measured after 48 hrs by CCK8 assay
# Format: functional, cell-based
# Conditions: KYSE-450, 48 h
row,Structure (SMILES),IC50 [µM]
1,COc1ccc(CN(C(=O)CSc2nc3ccccc3o2)c2cc(OC)c(OC)c(OC)c2)cc1,0.84
2,COc1ccc(CN(C(=O)CSC(=S)N2CCN(C)CC2)c2cc(OC)c(OC)c(OC)c2)cc1,1.25
3,COc1ccc(CN(C(=O)CSC(=S)N2CCc3ccccc32)c2cc(OC)c(OC)c(OC)c2)cc1,6.94
4,COc1cc2c(c(OC)c1OC)-c1ccc(OC)c(=O)cc1[C@@H](NC(C)=O)CC2 [COLCHICINE],0.22
5,COc1ccc(CN(C(=O)CSC(=S)N2CCN(C(=O)OC(C)(C)C)CC2)c2cc(OC)c(OC)c(OC)c2)cc1N=[N+]=[N-],0.84
6,COc1ccc(CN(C(=O)CSC(=S)N2CCN(C(C)=O)CC2)c2cc(OC)c(OC)c(OC)c2)cc1O,0.21
7,COc1cc(N(Cc2ccc(Br)cc2)C(=O)CSC(=S)N2CCN(C(=O)OC(C)(C)C)CC2)cc(OC)c1OC,10.7
8,COc1ccc(CN(C(=O)CN2CCN(C(C)=O)CC2)c2cc(OC)c(OC)c(OC)c2)cc1,10.8
9,COc1ccc(CN(C(=O)CSC(=S)N2CCOCC2)c2cc(OC)c(OC)c(OC)c2)cc1,7.22
10,COc1ccc(CN(C(=O)CSC(=S)N2CCN(C(C)=O)CC2)c2cc(OC)c(OC)c(OC)c2)cc1,0.37
11,COc1ccc(CN(C(=O)CSC(=S)N2CCN(Cc3ccc(C(C)(C)C)cc3)CC2)c2cc(OC)c(OC)c(OC)c2)cc1,2.14
12,COc1ccc(CN(C(=O)CSC(=S)N2CCc3cc(Br)ccc32)c2cc(OC)c(OC)c(OC)c2)cc1,> 20
13,CCN1CCN(C(=S)SCC(=O)N(Cc2ccc(OC)cc2)c2cc(OC)c(OC)c(OC)c2)CC1,3.07
14,COc1ccc(CN(C(=O)CSC(=S)N2CCN(C(=O)OC(C)(C)C)CC2)c2ccc(Cl)cc2)cc1,> 20
15,COc1ccc(CN(C(=O)CSC(=S)N2CCCc3cc(OC)ccc32)c2cc(OC)c(OC)c(OC)c2)cc1,5.53
16,COc1ccc(CN(C(=O)CSC(=S)N2CCCc3cc(C)ccc32)c2cc(OC)c(OC)c(OC)c2)cc1,5.21
17,COc1ccc(CN(C(=O)CSC(=S)N2CCN(C(=O)OC(C)(C)C)CC2)c2cc(OC)c(OC)c(OC)c2)cc1[N+](=O)[O-],0.81
18,COc1ccc(CN(C(=O)CSC(=S)N2CCCC2)c2cc(OC)c(OC)c(OC)c2)cc1,13.8
19,COc1ccc(CN(C(=O)CSC(=S)N2CCN(C(=O)OC(C)(C)C)CC2)c2ccc(OC)cc2)cc1,> 20

# System: HCT-116
# Assay: Antiproliferative activity against human HCT-116 cells assessed as cell growth inhibition measured after 48 hrs by CCK8 assay
# Format: functional, cell-based
# Conditions: HCT-116, 48 h
row,Structure (SMILES),IC50 [µM]
1,COc1ccc(CN(C(=O)CSc2nc3ccccc3o2)c2cc(OC)c(OC)c(OC)c2)cc1,3.28
2,COc1ccc(CN(C(=O)CSC(=S)N2CCN(C)CC2)c2cc(OC)c(OC)c(OC)c2)cc1,2.64
3,COc1ccc(CN(C(=O)CSC(=S)N2CCc3ccccc32)c2cc(OC)c(OC)c(OC)c2)cc1,7.71
4,COc1ccc(CN(C(=O)CSC(=S)N2CCN(C(=O)OC(C)(C)C)CC2)c2cc(OC)c(OC)c(OC)c2)cc1N=[N+]=[N-],0.78
5,COc1ccc(CN(C(=O)CSC(=S)N2CCN(C(C)=O)CC2)c2cc(OC)c(OC)c(OC)c2)cc1O,0.78
6,COc1cc(N(Cc2ccc(Br)cc2)C(=O)CSC(=S)N2CCN(C(=O)OC(C)(C)C)CC2)cc(OC)c1OC,11.4
7,COc1ccc(CN(C(=O)CN2CCN(C(C)=O)CC2)c2cc(OC)c(OC)c(OC)c2)cc1,> 20
8,COc1ccc(CN(C(=O)CSC(=S)N2CCOCC2)c2cc(OC)c(OC)c(OC)c2)cc1,4.13
9,COc1ccc(CN(C(=O)CSC(=S)N2CCN(C(C)=O)CC2)c2cc(OC)c(OC)c(OC)c2)cc1,1.37
10,COc1ccc(CN(C(=O)CSC(=S)N2CCN(Cc3ccc(C(C)(C)C)cc3)CC2)c2cc(OC)c(OC)c(OC)c2)cc1,6.89
11,COc1ccc(CN(C(=O)CSC(=S)N2CCc3cc(Br)ccc32)c2cc(OC)c(OC)c(OC)c2)cc1,8.06
12,CCN1CCN(C(=S)SCC(=O)N(Cc2ccc(OC)cc2)c2cc(OC)c(OC)c(OC)c2)CC1,7.7
13,COc1ccc(CN(C(=O)CSC(=S)N2CCN(C(=O)OC(C)(C)C)CC2)c2ccc(Cl)cc2)cc1,> 20
14,COc1ccc(CN(C(=O)CSC(=S)N2CCCc3cc(OC)ccc32)c2cc(OC)c(OC)c(OC)c2)cc1,> 20
15,COc1ccc(CN(C(=O)CSC(=S)N2CCCc3cc(C)ccc32)c2cc(OC)c(OC)c(OC)c2)cc1,5.23
16,COc1ccc(CN(C(=O)CSC(=S)N2CCN(C(=O)OC(C)(C)C)CC2)c2cc(OC)c(OC)c(OC)c2)cc1[N+](=O)[O-],0.98
17,COc1ccc(CN(C(=O)CSC(=S)N2CCCC2)c2cc(OC)c(OC)c(OC)c2)cc1,4.97
18,COc1ccc(CN(C(=O)CSC(=S)N2CCN(C(=O)OC(C)(C)C)CC2)c2ccc(OC)cc2)cc1,> 20
